This is an account of results in patent publication US7528138B2, “Pyrazolo[1,5-a]pyrimidines useful as inhibitors of protein kinases” (Vertex Pharmaceuticals Incorporated, priority 2004, dated 2009).

Assay type in all cases: biochemical
The target in one assay is T1, Itk (Homo sapiens, UniProt Q08881).
T1 sequence (Q08881 1-620): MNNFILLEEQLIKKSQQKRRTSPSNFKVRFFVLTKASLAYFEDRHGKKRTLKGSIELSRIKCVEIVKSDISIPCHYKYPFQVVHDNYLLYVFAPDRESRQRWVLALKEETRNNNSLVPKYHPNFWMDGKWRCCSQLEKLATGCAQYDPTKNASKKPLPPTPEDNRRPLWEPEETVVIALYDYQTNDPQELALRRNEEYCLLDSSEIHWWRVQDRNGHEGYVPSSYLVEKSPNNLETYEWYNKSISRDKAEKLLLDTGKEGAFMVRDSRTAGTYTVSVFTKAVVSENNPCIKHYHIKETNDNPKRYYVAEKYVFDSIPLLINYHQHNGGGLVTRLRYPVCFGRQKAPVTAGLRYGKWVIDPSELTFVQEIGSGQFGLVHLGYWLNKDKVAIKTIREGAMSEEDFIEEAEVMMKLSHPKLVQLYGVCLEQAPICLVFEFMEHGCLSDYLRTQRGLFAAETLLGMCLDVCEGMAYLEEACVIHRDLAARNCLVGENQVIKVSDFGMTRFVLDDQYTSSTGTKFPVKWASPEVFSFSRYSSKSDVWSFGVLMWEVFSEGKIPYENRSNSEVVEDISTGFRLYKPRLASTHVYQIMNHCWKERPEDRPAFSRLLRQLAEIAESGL
The assay is described as follows: ITK Inhibition Assay (Radiometric), radioactive-phosphate incorporation. As to conditions: enzyme inhibition data (Ki), Table 11; radiometric or UV assay not stated. A digest of the protocol: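 Radiometric 33P incorporation into SAM68 peptide (D332-443) with filter capture and scintillation counting; 10 min pre-incubation then 10 min reaction at 25° C. IC50 format: 30 nM Itk, 15 μM ATP, 2 μM peptide, HEPES pH 7.5. Ki(app) format: 50 nM Itk, 7.5 μM ATP, 3 μM peptide, MOPS pH 7.0.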

Another assay has as its target T2, JAK3 (Homo sapiens, UniProt P52333).
T2 sequence (P52333 1-1124): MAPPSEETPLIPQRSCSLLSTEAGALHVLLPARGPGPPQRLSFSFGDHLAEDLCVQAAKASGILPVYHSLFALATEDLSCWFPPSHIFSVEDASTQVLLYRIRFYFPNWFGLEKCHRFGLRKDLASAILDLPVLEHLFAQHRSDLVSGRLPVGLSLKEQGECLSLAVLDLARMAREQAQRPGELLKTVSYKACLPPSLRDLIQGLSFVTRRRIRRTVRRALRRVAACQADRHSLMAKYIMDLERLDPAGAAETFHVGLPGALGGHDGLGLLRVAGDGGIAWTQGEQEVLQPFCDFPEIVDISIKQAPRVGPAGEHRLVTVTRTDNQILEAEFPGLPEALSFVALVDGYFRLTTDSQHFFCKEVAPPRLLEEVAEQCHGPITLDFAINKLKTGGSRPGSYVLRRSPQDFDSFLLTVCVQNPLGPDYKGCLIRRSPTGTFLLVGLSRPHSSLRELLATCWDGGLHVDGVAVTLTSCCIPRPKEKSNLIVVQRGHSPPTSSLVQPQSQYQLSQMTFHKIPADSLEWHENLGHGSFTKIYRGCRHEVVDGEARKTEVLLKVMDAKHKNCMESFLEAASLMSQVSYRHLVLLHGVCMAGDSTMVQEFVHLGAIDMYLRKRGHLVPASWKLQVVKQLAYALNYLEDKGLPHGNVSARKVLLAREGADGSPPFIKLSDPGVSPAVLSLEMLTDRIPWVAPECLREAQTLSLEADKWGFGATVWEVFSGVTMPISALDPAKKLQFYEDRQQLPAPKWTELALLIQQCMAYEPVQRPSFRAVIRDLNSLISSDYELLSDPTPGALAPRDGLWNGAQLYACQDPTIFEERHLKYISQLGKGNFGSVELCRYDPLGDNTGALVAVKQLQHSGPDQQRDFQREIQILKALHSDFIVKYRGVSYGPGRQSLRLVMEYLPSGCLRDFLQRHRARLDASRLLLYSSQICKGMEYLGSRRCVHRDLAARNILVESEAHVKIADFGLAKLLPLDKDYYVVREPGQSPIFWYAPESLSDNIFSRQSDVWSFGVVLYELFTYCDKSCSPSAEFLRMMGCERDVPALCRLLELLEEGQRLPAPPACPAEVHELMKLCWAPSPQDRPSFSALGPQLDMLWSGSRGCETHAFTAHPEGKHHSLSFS
The assay is described as follows: JAK3 Inhibition Assay, 33P incorporation. As to conditions: enzyme inhibition data (Ki), Table 11. A digest of the protocol: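 33P incorporation into 1 μM poly(Glu)4Tyr was counted after TCA stop and glass fiber filtration. The 20 min reaction ran at 25 °C with 1 nM JAK3 and 5 μM ATP (200 uCi/μmole). Buffer was 100 mM HEPES pH 7.4, 10 mM MgCl2, 25 mM NaCl, 1 mM DTT, 0.01% BSA.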

A further assay has as its target c-Met (Homo sapiens, UniProt P08581). The assay is described as follows: c-Met Inhibition Assay, coupled enzyme system. To be noted: enzyme inhibition data (Ki), Table 11. A digest of the protocol: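 Pyruvate kinase/lactate dehydrogenase-coupled NADH assay in HEPES pH 7.5 with 80 nM c-Met, 200 μM ATP and 10 μM polyGluTyr at 30° C. Compound (0.006–12.5 μM final, 12-point) preincubated 10 min before ATP start; rates over 10 min gave Ki.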

Sequence of c-Met (P08581 25-1390): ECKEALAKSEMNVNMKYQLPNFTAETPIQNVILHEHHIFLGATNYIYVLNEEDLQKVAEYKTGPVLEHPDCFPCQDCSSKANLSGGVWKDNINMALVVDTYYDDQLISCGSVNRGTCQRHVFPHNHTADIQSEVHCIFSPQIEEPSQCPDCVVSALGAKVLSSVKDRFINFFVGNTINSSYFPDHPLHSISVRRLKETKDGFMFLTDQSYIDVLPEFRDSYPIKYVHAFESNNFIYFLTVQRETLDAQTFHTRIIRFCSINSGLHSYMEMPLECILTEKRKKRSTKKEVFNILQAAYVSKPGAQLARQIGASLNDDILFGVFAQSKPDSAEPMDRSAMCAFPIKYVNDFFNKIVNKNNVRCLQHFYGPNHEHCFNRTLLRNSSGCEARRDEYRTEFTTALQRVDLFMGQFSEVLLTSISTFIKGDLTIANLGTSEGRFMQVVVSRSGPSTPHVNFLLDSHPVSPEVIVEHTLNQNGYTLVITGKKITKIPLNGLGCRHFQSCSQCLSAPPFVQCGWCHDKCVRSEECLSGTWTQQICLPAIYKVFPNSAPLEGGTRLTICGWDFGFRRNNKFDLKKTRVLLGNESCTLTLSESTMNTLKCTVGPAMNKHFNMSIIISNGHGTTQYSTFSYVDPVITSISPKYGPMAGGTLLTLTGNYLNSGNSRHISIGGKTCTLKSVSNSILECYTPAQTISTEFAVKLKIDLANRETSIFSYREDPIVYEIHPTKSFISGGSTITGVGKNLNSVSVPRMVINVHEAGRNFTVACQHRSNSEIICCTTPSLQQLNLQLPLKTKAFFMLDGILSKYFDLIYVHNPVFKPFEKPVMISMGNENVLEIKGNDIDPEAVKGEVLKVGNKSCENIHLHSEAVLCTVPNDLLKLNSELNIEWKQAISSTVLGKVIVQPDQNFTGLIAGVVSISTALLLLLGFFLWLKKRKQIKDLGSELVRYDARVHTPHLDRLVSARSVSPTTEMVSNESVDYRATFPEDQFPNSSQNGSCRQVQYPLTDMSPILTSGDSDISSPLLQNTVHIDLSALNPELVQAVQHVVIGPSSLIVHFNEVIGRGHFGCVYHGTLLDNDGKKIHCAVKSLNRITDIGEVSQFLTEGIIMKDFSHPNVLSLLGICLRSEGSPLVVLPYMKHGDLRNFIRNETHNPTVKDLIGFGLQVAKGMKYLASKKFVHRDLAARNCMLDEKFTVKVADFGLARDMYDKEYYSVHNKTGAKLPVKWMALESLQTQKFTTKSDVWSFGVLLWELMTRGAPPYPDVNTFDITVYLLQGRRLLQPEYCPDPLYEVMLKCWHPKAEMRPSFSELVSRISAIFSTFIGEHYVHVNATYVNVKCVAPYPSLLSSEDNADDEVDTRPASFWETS

In the case of `CCN(CCN)C(=O)c1cccc(-c2cnc3c(-c4ccccn4)c(N)nn3c2)n1` [Compound V-126], the Ki (usually a dissociation constant, usually derived from enzyme kinetics or from competition with a known ligand) on Itk was 0.5 to 5 µM; on JAK3, > 5 µM; at c-Met, < 0.5 µM.

On to `CCN(CCO)C(=O)c1cccc(-c2cnc3c(-c4ccccn4)c(N)nn3c2)n1` [Compound V-128], for which the Ki on Itk is 0.5 to 5 µM; on JAK3, > 5 µM; at c-Met, < 0.5 µM.

With `Nc1nn2cc(-c3ccncc3)cnc2c1C(=O)c1ccccc1` [Compound V-131], the Ki at Itk, on JAK3 and at c-Met was 0.5 to 5 µM throughout.

Regarding `Nc1nn2cc(-c3ccncn3)cnc2c1-c1nncn1Cc1ccc(Cl)c(Cl)c1` [Compound V-136], the results for the Ki on Itk, on JAK3 and at c-Met were 0.5 to 5 µM, > 5 µM and 0.5 to 5 µM, respectively.

`Nc1nn2cc(-c3ccncc3)cnc2c1-c1cccc(Br)n1` [Compound V-137]: the Ki is 0.5 to 5 µM on Itk, > 5 µM at JAK3 and 0.5 to 5 µM at c-Met.

Consider `Nc1nn2cc(-c3ccncc3)cnc2c1-c1cccc(NCCC2=CCCCC2)n1` [Compound V-138], for which the results for the Ki on Itk, on JAK3 and on c-Met were 0.5 to 5 µM, > 5 µM and 0.5 to 5 µM, respectively.

For the compound `Nc1nn2cc(-c3cccc(C(=O)N4CCCC(O)C4)n3)cnc2c1-c1ccccn1` (stereo not drawn) [Compound V-140], the Ki on Itk was 0.5 to 5 µM; at JAK3 it was > 5 µM; on c-Met, < 0.5 µM.

As to `Nc1nn2cc(-c3cccc(C(=O)N4CCC(CCO)CC4)n3)cnc2c1-c1ccccn1` [Compound V-141], the Ki at Itk is 0.5 to 5 µM; at JAK3, > 5 µM; on c-Met, < 0.5 µM.

For the compound `CN(CC1OCCO1)C(=O)c1cccc(-c2cnc3c(-c4ccccn4)c(N)nn3c2)n1` [Compound V-142], the Ki at Itk was 0.5 to 5 µM; at JAK3, 0.5 to 5 µM; at c-Met it was < 0.5 µM.

For the compound `Nc1nn2cc(-c3ccc(N4CCOCC4)nc3)cnc2c1-c1ccccn1` [Compound V-144], the Ki is 0.5 to 5 µM on Itk, > 5 µM at JAK3 and < 0.5 µM at c-Met.

As for `CN1CCN(c2ccc(-c3cnc4c(-c5ccccn5)c(N)nn4c3)cn2)CC1` [Compound V-145], the Ki on Itk was < 0.5 µM; on JAK3, > 5 µM; at c-Met, < 0.5 µM.

For `Nc1nn2cc(-c3ccc(N4CCCCC4)nc3)cnc2c1-c1ccccn1` [Compound V-147], the Ki on Itk was 0.5 to 5 µM; at JAK3 it was > 5 µM; on c-Met it was 0.5 to 5 µM.

Take `Nc1nn2cc(-c3ccc(N4CCN(CCO)CC4)nc3)cnc2c1-c1ccccn1` [Compound V-148]: the Ki on Itk was < 0.5 µM; on JAK3 it was 0.5 to 5 µM; on c-Met, < 0.5 µM.

`CC(=O)N1CCN(c2ccc(-c3cnc4c(-c5ccccn5)c(N)nn4c3)cn2)CC1` [Compound V-149]: the results for the Ki on Itk, on JAK3 and at c-Met were 0.5 to 5 µM, 0.5 to 5 µM and < 0.5 µM, respectively.

Consider `Nc1nn2cc(-c3ccc(N4CCN(CCOCCO)CC4)nc3)cnc2c1-c1ccccn1` [Compound V-150], for which the Ki was < 0.5 µM at Itk, > 5 µM at JAK3 and < 0.5 µM on c-Met.

Consider `Nc1nn2cc(-c3ccc(C(=O)N4CCC[C@@H]4CN4CCCC4)cn3)cnc2c1-c1ccccn1` [Compound V-153], for which the Ki at Itk was < 0.5 µM; on JAK3, 0.5 to 5 µM; at c-Met, < 0.5 µM.

As to `CCN(CCN)c1ccc(-c2cnc3c(-c4ccccn4)c(N)nn3c2)cn1` [Compound V-157], the Ki at Itk is < 0.5 µM; at JAK3 it was > 5 µM; at c-Met it was < 0.5 µM.

For the compound `CCCN(CCO)c1ccc(-c2cnc3c(-c4ccccn4)c(N)nn3c2)cn1` [Compound V-158], the results for the Ki on Itk, on JAK3 and on c-Met were 0.5 to 5 µM, > 5 µM and < 0.5 µM, respectively.

`Nc1nn2cc(-c3ccc(NCCCC4=NCC=N4)nc3)cnc2c1-c1ccccn1` [Compound V-161]: the figures for the Ki on Itk, at JAK3 and at c-Met were 0.5 to 5 µM, > 5 µM and < 0.5 µM, respectively.

Consider `Nc1nn2cc(-c3ccc(N4CCN(c5cnccn5)CC4)nc3)cnc2c1-c1ccccn1` [Compound V-162], for which the Ki was 0.5 to 5 µM on Itk, > 5 µM on JAK3 and 0.5 to 5 µM at c-Met.

On to `Nc1nn2cc(-c3ccc(N4CCN(Cc5ccncc5)CC4)nc3)cnc2c1-c1ccccn1` [Compound V-163], for which the values for the Ki at Itk, at JAK3 and on c-Met were 0.5 to 5 µM, > 5 µM and < 0.5 µM, respectively.

On to `Nc1nn2cc(-c3ccc(N4CCC(N5CCCC5)CC4)nc3)cnc2c1-c1ccccn1` [Compound V-164], for which the Ki at Itk was < 0.5 µM; at JAK3, > 5 µM; at c-Met, < 0.5 µM.

Regarding `CCOC(=O)C1CCCN(c2ccc(-c3cnc4c(-c5ccccn5)c(N)nn4c3)cn2)C1` (stereo not drawn) [Compound V-167], the Ki on Itk was 0.5 to 5 µM; on JAK3 it was > 5 µM; on c-Met, < 0.5 µM.

Regarding `CN(CCc1ccccn1)c1ccc(-c2cnc3c(-c4ccccn4)c(N)nn3c2)cn1` [Compound V-168], the Ki on Itk was 0.5 to 5 µM; at JAK3, > 5 µM; on c-Met, 0.5 to 5 µM.

In the case of `CN1CCC(N(C)c2ccc(-c3cnc4c(-c5ccccn5)c(N)nn4c3)cn2)CC1` [Compound V-169], the Ki is < 0.5 µM on Itk, > 5 µM at JAK3 and < 0.5 µM at c-Met.

Consider `Nc1nn2cc(-c3ccc(N4CCSCC4)nc3)cnc2c1-c1ccccn1` [Compound V-170], for which the Ki at Itk was 0.5 to 5 µM; on JAK3 it was > 5 µM; on c-Met it was 0.5 to 5 µM.

On to `CCN(C)c1ccc(-c2cnc3c(-c4ccccn4)c(N)nn3c2)cn1` [Compound V-171], for which the Ki on Itk is 0.5 to 5 µM; on JAK3 it was > 5 µM; on c-Met, < 0.5 µM.

As to `CC(C)CN(C)c1ccc(-c2cnc3c(-c4ccccn4)c(N)nn3c2)cn1` [Compound V-172], the values for the Ki on Itk, at JAK3 and at c-Met were 0.5 to 5 µM, > 5 µM and 0.5 to 5 µM, respectively.

For `CCOC(=O)N1CCN(c2ccc(-c3cnc4c(-c5ccccn5)c(N)nn4c3)cn2)CC1` [Compound V-174], the Ki at Itk was 0.5 to 5 µM; on JAK3, > 5 µM; at c-Met, 0.5 to 5 µM.

For the compound `COc1ccc(-c2cnc3c(-c4ccccc4)c(N)nn3c2)cc1` [Compound V-186], the Ki was < 0.5 µM at Itk, > 5 µM at JAK3 and 0.5 to 5 µM at c-Met.

`Nc1nn2cc(-c3ccncc3)cnc2c1-c1ccccc1` [Compound V-187]: the Ki was 0.5 to 5 µM at Itk, > 5 µM at JAK3 and < 0.5 µM on c-Met.

`N#Cc1cccc(-c2cnc3c(-c4ccccn4)c(N)nn3c2)c1` [Compound V-197]: the Ki was < 0.5 µM at Itk, > 5 µM at JAK3 and < 0.5 µM at c-Met.
